Experiments:
[1] = target: PI3K-gamma (Homo sapiens, UniProt P48736); assay: PI3K inhibition assay (33P-ATP, PI(4,5)P2 substrate), PI3K-gamma; type: biochemical; also: 2 nM enzyme
Experimental: One test well also contained 1.5 μL of DMSO with no compound. […] Using a Titertek Multidrop, 50 μL of Reaction Mix [100 mM HEPES pH 7.5, 50 mM NaCl, 10 mM DTT, 0.2 mg/mL BSA, 60 μM phosphatidylinositol(4,5)bisphosphate diC16 (PI(4,5)P2; Avanti Polar Lipids, Cat. No. 840046P) and PI3K isoform of interest (see Table 3 for isoform concentrations)] was added to each well. To initiate the reaction, 50 μL of ATP Mix [20 mM MgCl2, 6 μM ATP (100 μCi/μmole ^33P-ATP)] was added each well, followed by incubating the wells for 30 min. at 25° C. Final concentrations in each well were 50 mM HEPES 7.5, 10 mM MgCl2, 25 mM NaCl, 5 mM DTT, 0.1 mg/mL BSA, 30 μM PI(4,5)P2, 3 μM ATP, and the PI3K isoform of interest (see Table 2). Final compound concentrations in each well ranged from 10 μM to 1 nM.
After incubation, the reactions in each well were quenched by addition of 50 μL of stop solution [30% TCA/Water, 10 mM ATP]. […] 50 μL of scintillation fluid was added to each well and the plate read on a Perkin-Elmer TopCount™ NXT liquid scintillation counter to obtain ^33P-counts representing inhibition values.
The value for the background well was subtracted from the value obtained for each test well and the data were fit to the competitive tight binding Ki equation described by Morrison and Stone, Comments Mol. Cell Biophys.

[2] = system: activated microglia; assay: Microglia activation assay (LPS-treated mice, Iba1 IHC of brain); type: in vivo; details: 10 mg/kg b.i.d. oral, LPS 0.5 mg/kg i.p., female C57Bl/6J mice
Experimental: Female C57Bl/6J mice (7 weeks old) were purchased from Jackson Laboratory (Maine, US). Animals were acclimated for a week at standard laboratory conditions (12 hrs light cycles) with free access to rodent chow and water. All procedures were in accordance with the National Institute of Health Guidelines for the care and Use of Laboratory Animals and were approved by IACUCC. The endotoxin Lipopolysaccharide (LPS) (E. coli 011:B4, cat #437627) was purchased from Calbiochem. LPS was dissolved in PBS buffer at a concentration of 0.05 mg/ml and stored in frozen aliquots. At the start of the study, mice received an intraperitoneal (i.p.) injection of LPS (0.5 mg/kg) for three consecutive days. Therapeutic treatment with VRT compounds was started together with the 2nd LPS administration and maintained throughout the study. Compound was dosed twice a day orally by gavage for a total of 4 doses. 24 h following the last LPS injection, and 2 hrs following the last VRT dose, animals were sacrificed by CO2 asphyxiation. […]
Digital images were captured using the Aperio ScanScope Slide Scanner (Aperio Technologies, Vista, Calif.). Images were captured at 20× optical magnification, and analyzed using the software Definiens Developer XD. […] Compound efficacy was calculated as percent decrease in number of activated microglia relative to vehicle control.

PI3K-gamma, sequence (P48736 whole entry, species assumed, canonical isoform): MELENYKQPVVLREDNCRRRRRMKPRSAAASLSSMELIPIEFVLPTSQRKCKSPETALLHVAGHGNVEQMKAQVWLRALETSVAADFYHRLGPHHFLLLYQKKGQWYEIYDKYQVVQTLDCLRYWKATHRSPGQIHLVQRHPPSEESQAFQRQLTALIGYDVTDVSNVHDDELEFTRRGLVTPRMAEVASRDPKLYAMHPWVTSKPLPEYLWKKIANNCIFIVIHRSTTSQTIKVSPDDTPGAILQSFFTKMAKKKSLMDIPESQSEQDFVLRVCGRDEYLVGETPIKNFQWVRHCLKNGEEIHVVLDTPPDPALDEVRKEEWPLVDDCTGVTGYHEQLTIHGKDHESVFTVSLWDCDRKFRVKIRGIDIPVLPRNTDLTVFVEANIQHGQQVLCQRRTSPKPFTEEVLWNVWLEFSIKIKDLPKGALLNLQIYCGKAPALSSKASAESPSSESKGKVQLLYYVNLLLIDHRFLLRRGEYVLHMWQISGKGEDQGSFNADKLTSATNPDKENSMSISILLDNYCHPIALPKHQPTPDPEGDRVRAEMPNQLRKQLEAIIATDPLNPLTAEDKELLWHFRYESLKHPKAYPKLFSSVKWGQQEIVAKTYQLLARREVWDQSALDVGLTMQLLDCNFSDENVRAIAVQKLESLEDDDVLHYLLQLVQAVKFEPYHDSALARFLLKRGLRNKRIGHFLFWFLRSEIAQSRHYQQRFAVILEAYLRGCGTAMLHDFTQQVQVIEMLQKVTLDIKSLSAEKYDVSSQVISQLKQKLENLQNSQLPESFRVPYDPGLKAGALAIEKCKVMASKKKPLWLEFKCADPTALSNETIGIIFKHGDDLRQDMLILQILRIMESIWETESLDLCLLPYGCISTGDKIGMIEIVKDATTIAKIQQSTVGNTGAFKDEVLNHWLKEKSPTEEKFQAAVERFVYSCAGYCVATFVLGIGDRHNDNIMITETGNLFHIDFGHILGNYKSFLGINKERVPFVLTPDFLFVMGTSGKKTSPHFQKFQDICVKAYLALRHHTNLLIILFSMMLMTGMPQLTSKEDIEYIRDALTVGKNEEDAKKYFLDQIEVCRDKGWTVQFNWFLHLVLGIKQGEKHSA

Cc1cc(-c2cncc(OCC(F)F)c2)nc2c1C(=O)N(c1ccn(C3CCOC3)n1)C2 (single isomer, unassigned) [Compound 863] was tested, and the Ki [1] was under 100 nM.

In the case of Cc1cc(-c2cnc(C)c(OCC(F)F)c2)nc2c1C(=O)N(c1ccn(C3CCOC3)n1)C2 (single isomer, unassigned) [Compound 864], the Ki [1] is reported as under 100 nM.

Cc1cc(-c2cncc(S(=O)(=O)N(C)C)c2)nc2c1C(=O)N(c1ccn(C3CCOC3)n1)C2 (single isomer, unassigned) [Compound 954] gave a Ki [1] of under 100 nM.

With COc1cc(-c2ccc3c(c2)CN(c2cn[nH]c2)C3=O)cnc1OC [Compound 13] the Ki [1] was 100 to 490 nM.

N#CCn1cc(N2Cc3cc(-c4cncc(S(N)(=O)=O)c4)ccc3C2=O)cn1 [Compound 76] showed a Ki [1] of 100 to 490 nM.

Work on COc1cc(-c2ccc3c(n2)CN(c2ccc(N(C)CCN(C)C)nc2)C3=O)cnc1OC [Compound 195] yielded a Ki [1] of 500 to 2500 nM.

For Cc1cc(-c2cncc(OC(F)F)c2)nc2c1C(=O)N(c1cnn(CC(F)(F)F)c1)C2 [Compound 271], the “percent decrease in number of activated microglia relative to vehicle control” value [2] was 39%.

COc1cc(-c2ccc3c(n2)C(N2CCCN(C)CC2)N(c2cnn(CC(F)(F)F)c2)C3=O)cnc1OC (centres unmarked) [Compound 663] gave a Ki [1] of 500 to 2500 nM.

COc1cc(-c2ccc3c(n2)[C@@H](N2CCOCC2)N(c2cnn(CC(F)(F)F)c2)C3=O)cnc1OC [Compound 665] gave a Ki [1] of 500 to 2500 nM.

In the case of COc1cncc(-c2cc(C)c3c(n2)C(OC)N(c2cc[nH]n2)C3=O)c1 (centres unmarked) [Compound 759], the Ki [1] is reported as 500 to 2500 nM.

Molecule COc1cncc(-c2cc(C)c3c(n2)C(C)(C)N(c2ccn(C[C@H](C)O)n2)C3=O)c1 [Compound 872] has a Ki [1] of 100 to 490 nM.

In the case of CO/N=C/c1cncc(-c2cc(C)c3c(n2)C(C)(C)N(c2cnn(CC(F)(F)F)c2)C3=O)c1 [Compound 883], the Ki [1] is reported as under 100 nM.

With Cc1cc(-c2cncc([S@+](C)[O-])c2)nc2c1C(=O)N(c1cnn(CC(F)(F)F)c1)C2(C)C [Compound 967] the Ki [1] was under 100 nM.

Work on Cc1cc(-c2cncc([S@@+](C)[O-])c2)nc2c1C(=O)N(c1cnn(CC(F)(F)F)c1)C2(C)C [Compound 968] yielded a Ki [1] of under 100 nM.
